The NIST ThermoML archive (doi:10.1016/j.jct.2004.07.018)
Numbers after ± are expanded uncertainties.

Assay: mn = molality of the nth substance listed, in mol/kg
Conditions: 101.3 kPa, Liquid, buoyancy

CCOS(=O)(=O)[O-].CCn1cc[n+](C)c1 [1-ethyl-3-methylimidazolium ethyl sulfate] + O
Conditions | mass density [kg/m3]
278.15 K, m1 = 0.2224 | 1010 ± 5.7
278.15 K, m1 = 0.4472 | 1019.6 ± 5.8
278.15 K, m1 = 0.6739 | 1028.5 ± 5.8
278.15 K, m1 = 0.903 | 1037.1 ± 5.9
278.15 K, m1 = 1.132 | 1045.3 ± 5.9
278.15 K, m1 = 1.364 | 1053.1 ± 6
278.15 K, m1 = 1.598 | 1060.5 ± 6
278.15 K, m1 = 1.835 | 1067.6 ± 6
278.15 K, m1 = 2.072 | 1074.2 ± 6.1
278.15 K, m1 = 2.313 | 1080.5 ± 6.1
278.15 K, m1 = 2.554 | 1086.4 ± 6.1
278.15 K, m1 = 2.798 | 1092.2 ± 6.2
278.15 K, m1 = 3.044 | 1098.2 ± 6.2
283.15 K, m1 = 0.2224 | 1009.6 ± 5.7
283.15 K, m1 = 0.4472 | 1018.9 ± 5.8
283.15 K, m1 = 0.6739 | 1027.7 ± 5.8
283.15 K, m1 = 0.903 | 1036.1 ± 5.9
283.15 K, m1 = 1.132 | 1044 ± 5.9
283.15 K, m1 = 1.364 | 1051.5 ± 5.9
283.15 K, m1 = 1.598 | 1058.8 ± 6
283.15 K, m1 = 1.835 | 1065.6 ± 6
283.15 K, m1 = 2.072 | 1072 ± 6.1
283.15 K, m1 = 2.313 | 1078.2 ± 6.1
283.15 K, m1 = 2.554 | 1084 ± 6.1
283.15 K, m1 = 2.798 | 1089.6 ± 6.2
283.15 K, m1 = 3.044 | 1095 ± 6.2
288.15 K, m1 = 0.2224 | 1008.7 ± 5.7
288.15 K, m1 = 0.4472 | 1017.8 ± 5.8
288.15 K, m1 = 0.6739 | 1026.5 ± 5.8
288.15 K, m1 = 0.903 | 1034.8 ± 5.8
288.15 K, m1 = 1.132 | 1042.6 ± 5.9
288.15 K, m1 = 1.364 | 1050.1 ± 5.9
288.15 K, m1 = 1.598 | 1057.2 ± 6
288.15 K, m1 = 1.835 | 1063.8 ± 6
288.15 K, m1 = 2.072 | 1070.2 ± 6
288.15 K, m1 = 2.313 | 1076.2 ± 6.1
288.15 K, m1 = 2.554 | 1082 ± 6.1
288.15 K, m1 = 2.798 | 1087.4 ± 6.1
288.15 K, m1 = 3.044 | 1092.5 ± 6.2
293.15 K, m1 = 0.2224 | 1007.6 ± 5.7
293.15 K, m1 = 0.4472 | 1016.7 ± 5.7
293.15 K, m1 = 0.6739 | 1025.2 ± 5.8
293.15 K, m1 = 0.903 | 1033.3 ± 5.8
293.15 K, m1 = 1.132 | 1041 ± 5.9
293.15 K, m1 = 1.364 | 1048.3 ± 5.9
293.15 K, m1 = 1.598 | 1055.2 ± 6
293.15 K, m1 = 1.835 | 1061.9 ± 6
293.15 K, m1 = 2.072 | 1068.1 ± 6
293.15 K, m1 = 2.313 | 1074.1 ± 6.1
293.15 K, m1 = 2.554 | 1079.6 ± 6.1
293.15 K, m1 = 2.798 | 1085 ± 6.1
293.15 K, m1 = 3.044 | 1090 ± 6.2
298.15 K, m1 = 0.2224 | 1006.3 ± 5.7
298.15 K, m1 = 0.4472 | 1015 ± 5.7
298.15 K, m1 = 0.6739 | 1023.3 ± 5.8
298.15 K, m1 = 0.903 | 1031.2 ± 5.8
298.15 K, m1 = 1.132 | 1038.7 ± 5.9
298.15 K, m1 = 1.364 | 1045.7 ± 5.9
298.15 K, m1 = 1.598 | 1052.5 ± 5.9
298.15 K, m1 = 1.835 | 1058.9 ± 6
298.15 K, m1 = 2.072 | 1064.9 ± 6
298.15 K, m1 = 2.313 | 1070.6 ± 6.1
298.15 K, m1 = 2.554 | 1076.1 ± 6.1
298.15 K, m1 = 2.798 | 1081.3 ± 6.1
298.15 K, m1 = 3.044 | 1086.2 ± 6.1
303.15 K, m1 = 0.2224 | 1004.7 ± 5.7
303.15 K, m1 = 0.4472 | 1013.3 ± 5.7
303.15 K, m1 = 0.6739 | 1021.6 ± 5.8
303.15 K, m1 = 0.903 | 1029.3 ± 5.8
303.15 K, m1 = 1.132 | 1036.8 ± 5.9
303.15 K, m1 = 1.364 | 1043.9 ± 5.9
303.15 K, m1 = 1.598 | 1050.6 ± 5.9
303.15 K, m1 = 1.835 | 1057 ± 6
303.15 K, m1 = 2.072 | 1062.9 ± 6
303.15 K, m1 = 2.313 | 1068.6 ± 6
303.15 K, m1 = 2.554 | 1074.1 ± 6.1
303.15 K, m1 = 2.798 | 1079.4 ± 6.1
303.15 K, m1 = 3.044 | 1084.3 ± 6.1
308.15 K, m1 = 0.2224 | 1002.9 ± 5.7
308.15 K, m1 = 0.4472 | 1011.6 ± 5.7
308.15 K, m1 = 0.6739 | 1019.6 ± 5.8
308.15 K, m1 = 0.903 | 1027.7 ± 5.8
308.15 K, m1 = 1.132 | 1034.6 ± 5.8
308.15 K, m1 = 1.364 | 1041.5 ± 5.9
308.15 K, m1 = 1.598 | 1048.3 ± 5.9
308.15 K, m1 = 1.835 | 1054.6 ± 6
308.15 K, m1 = 2.072 | 1060.5 ± 6
308.15 K, m1 = 2.313 | 1066.2 ± 6
308.15 K, m1 = 2.554 | 1071.7 ± 6.1
308.15 K, m1 = 2.798 | 1076.8 ± 6.1
308.15 K, m1 = 3.044 | 1081.8 ± 6.1
313.15 K, m1 = 0.2224 | 1001.1 ± 5.7
313.15 K, m1 = 0.4472 | 1009.6 ± 5.7
313.15 K, m1 = 0.6739 | 1017.9 ± 5.8
313.15 K, m1 = 0.903 | 1025.6 ± 5.8
313.15 K, m1 = 1.132 | 1032.8 ± 5.8
313.15 K, m1 = 1.364 | 1039.7 ± 5.9
313.15 K, m1 = 1.598 | 1046.4 ± 5.9
313.15 K, m1 = 1.835 | 1052.8 ± 5.9
313.15 K, m1 = 2.072 | 1058.8 ± 6
313.15 K, m1 = 2.313 | 1064.4 ± 6
313.15 K, m1 = 2.554 | 1069.8 ± 6
313.15 K, m1 = 2.798 | 1074.9 ± 6.1
313.15 K, m1 = 3.044 | 1079.8 ± 6.1
318.15 K, m1 = 0.2224 | 999 ± 5.6
318.15 K, m1 = 0.4472 | 1007.5 ± 5.7
318.15 K, m1 = 0.6739 | 1015.6 ± 5.7
318.15 K, m1 = 0.903 | 1023.1 ± 5.8
318.15 K, m1 = 1.132 | 1030.4 ± 5.8
318.15 K, m1 = 1.364 | 1037.3 ± 5.9
318.15 K, m1 = 1.598 | 1043.9 ± 5.9
318.15 K, m1 = 1.835 | 1050.2 ± 5.9
318.15 K, m1 = 2.072 | 1056.1 ± 6
318.15 K, m1 = 2.313 | 1061.7 ± 6
318.15 K, m1 = 2.554 | 1067.1 ± 6
318.15 K, m1 = 2.798 | 1072.3 ± 6.1
318.15 K, m1 = 3.044 | 1077.1 ± 6.1
323.15 K, m1 = 0.2224 | 996.6 ± 5.6
323.15 K, m1 = 0.4472 | 1005.1 ± 5.7
323.15 K, m1 = 0.6739 | 1013 ± 5.7
323.15 K, m1 = 0.903 | 1020.5 ± 5.8
323.15 K, m1 = 1.132 | 1027.9 ± 5.8
323.15 K, m1 = 1.364 | 1034.7 ± 5.8
323.15 K, m1 = 1.598 | 1041.3 ± 5.9
323.15 K, m1 = 1.835 | 1047.7 ± 5.9
323.15 K, m1 = 2.072 | 1053.6 ± 6
323.15 K, m1 = 2.313 | 1059.4 ± 6
323.15 K, m1 = 2.554 | 1064.8 ± 6
323.15 K, m1 = 2.798 | 1070 ± 6
323.15 K, m1 = 3.044 | 1074.9 ± 6.1
328.15 K, m1 = 0.2224 | 994.1 ± 5.6
328.15 K, m1 = 0.4472 | 1002.6 ± 5.7
328.15 K, m1 = 0.6739 | 1010.6 ± 5.7
328.15 K, m1 = 0.903 | 1018.1 ± 5.8
328.15 K, m1 = 1.132 | 1025.3 ± 5.8
328.15 K, m1 = 1.364 | 1032.1 ± 5.8
328.15 K, m1 = 1.598 | 1038.7 ± 5.9
328.15 K, m1 = 1.835 | 1045.1 ± 5.9
328.15 K, m1 = 2.072 | 1051.1 ± 5.9
328.15 K, m1 = 2.313 | 1056.8 ± 6
328.15 K, m1 = 2.554 | 1062.4 ± 6
328.15 K, m1 = 2.798 | 1067.4 ± 6
328.15 K, m1 = 3.044 | 1072.7 ± 6.1
333.15 K, m1 = 0.2224 | 991.4 ± 5.6
333.15 K, m1 = 0.4472 | 999.8 ± 5.7
333.15 K, m1 = 0.6739 | 1007.7 ± 5.7
333.15 K, m1 = 0.903 | 1015.4 ± 5.7
333.15 K, m1 = 1.132 | 1022.7 ± 5.8
333.15 K, m1 = 1.364 | 1029.7 ± 5.8
333.15 K, m1 = 1.598 | 1036.4 ± 5.9
333.15 K, m1 = 1.835 | 1042.7 ± 5.9
333.15 K, m1 = 2.072 | 1048.9 ± 5.9
333.15 K, m1 = 2.313 | 1054.9 ± 6
333.15 K, m1 = 2.554 | 1060.4 ± 6
333.15 K, m1 = 2.798 | 1065.8 ± 6
333.15 K, m1 = 3.044 | 1070.9 ± 6.1
